Experiment: gradient 5% acetonitrile 3 min, to 50% in 2 min, to 85% in 15 min, held 3 min, 100 µL/min
Details: column: Zorbax Extend-C18 2.1 x 50 mm; eluents: water / acetonitrile, 0.1% formic acid
Method in brief: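 A Zorbax Extend-C18 column (2.1 × 50 mm, 1.8 μm) run at 100 μL/min with water and acetonitrile, both containing 0.1% formic acid, separated mixtures of ~100 pure standards. The HPLC was coupled to a quadrupole time-of-flight mass spectrometer operated in positive and negative ionization mode, with dead and dwell volumes of 40 μL and 900 μL. Each retention time was taken from a computationally picked adduct peak that was then manually inspected.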

Row | RP-LC retention time [s] | SMILES
1 | 733 | O=C(c1cc(S(=O)(=O)N2CCCC(C(=O)N3CCCC3)C2)c[nH]1)N1CCCCCC1 (configuration not stated)
2 | 1080 | CCOc1ccccc1N1CCN(S(=O)(=O)c2nn(C)cc2C(=O)NCCC(C)C)CC1
3 | 775 | COc1ccc(CC(=O)Nc2nc(S(=O)(=O)Cc3ccccc3)ns2)cc1OC
4 | 882 | CN(C)c1ccc(C(=O)Nc2cnc(N3CCCCC3)nc2)cc1
5 | 743 | COc1ccc(-c2noc(-c3ccc(=O)n(Cc4ccccn4)c3)n2)cc1OC
6 | 491 | O=C(c1ccc2ncccc2c1)N1CCC(c2nc(C3CC3)n[nH]2)CC1
7 | 705 | Cc1ccc(C)c(C(=O)NCCc2nc3cccnc3n2C(C)C)c1
8 | 603 | Cc1ccc2cc(CN3CCC4(CC3)CC(C)(O)CCO4)c(=O)[nH]c2c1 (configuration not stated)
9 | 647 | COc1ccc(NC(=O)Cn2ncc3c(c2=O)N(C2CC2)C(=O)CS3)cc1OC
10 | 999 | COc1cc(OC)c(NC(=O)Cn2cc3c(n2)CCC(C)C3)cc1Cl (configuration not stated)
11 | 654 | Cc1cc(C)c2c(N3CCCC3)nc(C(=O)N(C)Cc3ccccc3)nc2n1
12 | 685 | CCN1CCn2cc(S(=O)(=O)NCc3ccccc3F)cc2C1=O
13 | 806 | CCCc1cc(=O)oc2cc(C)cc(OCC(=O)N[C@H](C(=O)O)C(C)C)c12
14 | 590 | CCCn1cnc2cc(CNC(=O)C3CCCC3)ccc21
15 | 600 | COc1ccc(NC(=O)CN2CCc3[nH]c4c(C)cc(F)cc4c(=O)c3C2)cc1
16 | 586 | COc1cccc(C(=O)N2CCN(c3ccc(-c4ccccn4)nn3)CC2)c1OC
17 | 954 | Cc1nc(Cn2cccc2C(=O)NC2CCCCCCC2)no1
18 | 887 | Cc1nn(-c2ccc(-c3ccccc3)nn2)c(C)c1S(=O)(=O)N1CCOCC1
19 | 867 | CCc1nnc(-c2cn(CC(=O)NCc3cccc(Br)c3)c3ccccc23)o1
20 | 581 | O=c1ccc2cc(S(=O)(=O)N3CCN(c4ccccn4)CC3)ccc2[nH]1
21 | 641 | O=S(=O)(c1ccccc1)N1CC(n2cnnc2-c2ccccc2)C1
22 | 624 | Cc1ccc(CN(Cc2cc(=O)n3cc(Cl)ccc3n2)CC(C)C)cc1

Row | RP-LC retention time [s] | SMILES
23 | 852 | CSc1cccc(NC(=O)N2CCC(C)(C(=O)NCc3ccccc3)CC2)c1
24 | 842 | Cn1cc(-c2ccccc2)cc1C(=O)O
25 | 730 | O=C(C1=CN(c2ccc3c(c2)OCCO3)c2ccccc2S1(=O)=O)N1CCOCC1
26 | 674 | CCNC(=O)C1CCN(c2cnn(Cc3ccccc3)c(=O)c2)CC1
27 | 852 | C#CCOCC1CCN(C(=O)CSC2CCCC2)CC1
28 | 664 | COc1ccc2nc([S@](=O)Cc3ncc(C)c(OC)c3C)[nH]c2c1
29 | 789 | CCc1ccc(NC(=O)N2CCC(N3CCN(Cc4ccccc4)C(=O)C3=O)CC2)cc1
30 | 880 | Cc1ccc(CN2CCN(C3CCN(S(=O)(=O)c4ccc(F)c(F)c4)CC3)C(=O)C2=O)cc1
31 | 680 | O=C(c1ccc(OCCCc2cnc[nH]2)cc1)C1CC1
32 | 648 | CCCn1c(C2CCN(C(=O)Nc3ccc(F)cc3)CC2)cc(=O)n2nccc12
33 | 1140 | COc1ccc(S(=O)(=O)N2CCC(c3noc(-c4ccccc4)n3)CC2)cc1Cl
34 | 897 | CCCNC(=O)N(C1CCOCC1)C1CCN(S(=O)(=O)c2cc(F)ccc2C)CC1
35 | 909 | Cc1c(CCOC(=O)c2ccc([N+](=O)[O-])cc2)sc[n+]1Cc1ccccc1
36 | 620 | O=C(NCc1ccco1)N1CCN(Cc2nc3cccnc3n2-c2ccccc2)CC1
37 | 640 | COc1ccc(-c2nc3ncccn3c2Nc2ccc(OC)c(OC)c2)cc1
38 | 767 | CCc1cccc(NC(=O)Cn2c(=O)c3cc(C)nn3c3ncccc32)c1
39 | 662 | CC(C)CCN1CCC(N2CCN(S(=O)(=O)c3ccc(F)cc3)CC2)C1=O (configuration not stated)
40 | 845 | O=C1CN(Cc2ccccc2)[C@H]2CS(=O)(=O)C[C@H]2N1c1ccc(Br)cc1
41 | 697 | Cc1ccc(C)c(NC(=O)Nc2c(-c3ccc(F)cc3)nc3ccccn23)c1
42 | 979 | CCOc1ccc(NC(=O)c2[nH]c(C)c(S(=O)(=O)N3CCCCC3)c2C)cc1
43 | 766 | COCCN1C(=O)CCc2cc(NC(=O)Cc3ccccc3C)ccc21
44 | 661 | CC(C)N1CCN(Cc2nc(-c3ccc(N(C)Cc4ccccc4)nc3)no2)CC1

Row | RP-LC retention time [s] | SMILES
45 | 771 | COCCN1C(=O)Cc2ccccc2C1C(=O)NCc1ccc(SC)cc1 (configuration not stated)
46 | 1050 | Cc1ccc(-c2cc(NC(=O)c3cccc(N(C)C)c3)on2)s1
47 | 569 | Cc1ccc(C(=O)N2CCC(c3nc4ccncc4n3CC(C)C)C2)s1 (configuration not stated)
48 | 958 | O=S(=O)(NCc1ccc(Br)cc1)c1ccc2c(c1)-c1oncc1CO2
49 | 887 | Cc1ccc(CNC(=O)N2C[C@@H](F)C[C@H]2C(=O)N2CCc3ccccc3C2)cc1
50 | 894 | Cc1nc(-c2cc3ccccc3nc2N2CCN(C(=O)c3cccs3)CC2)no1
51 | 680 | CC(=O)c1ccc(NC(=O)Cn2c(-c3cnccn3)nc(C)c(C)c2=O)cc1
52 | 943 | Cc1ccc(-c2cc3n(n2)CCCN(C(=O)CCC(=O)c2ccc(F)cc2)C3)cc1
53 | 736 | Cn1cc(CC(=O)NCc2ccc(Br)cc2)c2cccnc21
54 | 1080 | O=c1ccc(-c2ccccc2)nn1Cc1nc(-c2ccc(Cl)cc2)no1
55 | 749 | O=C(Nc1ccc(N2CCN(Cc3ccc(F)cc3)C2=O)nc1)c1ccco1
56 | 1080 | CCCN1C(=O)COc2ccc(-c3noc(Cc4ccc(OC)cc4)n3)cc21
57 | 631 | CC(C)n1cnnc1CC1CN(C(=O)Nc2cc(F)ccc2F)C1
58 | 772 | O=C(NCCC1=CCCCC1)C1CCN(c2cnc(N3CCOCC3)nc2)CC1
59 | 730 | CC(C)N1CCn2cc(S(=O)(=O)Nc3ccccc3F)cc2C1=O
60 | 993 | Cc1cc(Br)ccc1NC(=O)c1cc2n(n1)CCCC2
61 | 1150 | O=C(c1cccs1)N1CCc2c([nH]c3ccccc23)C1c1ccc(F)cc1 (configuration not stated)
62 | 743 | CC(C)c1cccc(NC(=O)Cn2cnc3nc(N4CCC(C(=O)NC5CC5)CC4)sc3c2=O)c1
63 | 1060 | CCN(CC)S(=O)(=O)c1ccc2nc(NCc3cc(F)cc(F)c3)cnc2c1
64 | 605 | O=C(NCc1ccccc1F)c1ccc2c(c1)CNCCO2
65 | 854 | COc1ccc(-c2nnc(COc3ccc(NC(=O)C(NC(=O)c4ccco4)C(C)C)cc3)o2)cc1 (configuration not stated)
66 | 560 | O=C(NCCc1ccncc1)c1cnn(-c2ccccc2)n1

Row | SMILES | RP-LC retention time [s]
67 | Cn1cc(C(=O)NCc2ccc3c(c2)OCO3)c2cccnc21 | 706

Source: the METLIN SMRT retention time set (Domingo-Almenara et al. 2019)
